Marks after values point to notes of the source that are not given here.
Legend:
[1] = Renal concentrations until one week after single oral administration; type: in vivo, SD/IGS rats; details: male Sprague-Dawley rats
Experimental: (1) Changes in Renal Concentrations of Compounds 4, 10, 11 and 33 Disclosed in WO2007/136116 Until One Week After Oral Administration
SD/IGS rats at 7 weeks of age (male, non-fasting, Charles River Laboratories Japan Inc.) were orally administered with compound 4, 10 or 33 (1 mg/kg each) or compound 11 (0.3 mg/kg) prepared in a 0.5% aqueous solution of CMC. At 24, 72 and 168 hours after drug administration, the rats were exsanguinated via the postcaval vein under ether anesthesia, and their kidneys were excised after they were confirmed to be euthanized. After the tissue surface was washed with physiological saline, each tissue was measured for its weight and homogenized in 4 volumes of purified water under ice cooling. To each homogenate, an acetonitrile/methanol solution containing an internal standard substance was added to remove proteins, and the supernatant was then subjected to LC-MS/MS (Applied Biosystems API3000). Drug-derived ions generated by electrospray ionization in positive ion mode were detected by selective reaction monitoring. The peak area of the resulting extracted ion chromatogram was analyzed by the internal standard method to calculate the drug concentration in the homogenate.
As the internal standard material for compounds 10 and 33, (1S)-1,5-anhydro-1-[5-(4-ethoxybenzyl)-2-methoxy-4-methylphenyl]-1-thio-D-glucitol,ethyl-D5 was used. As the internal standard materials for compounds 4 and 11, compound 11 and deuterium-labeled compound 11 (trishydroxymethyl-D6; —C(CD2OH)3), respectively, were used.

[2] = tested on: streptozotocin diabetic model rats; test: Oral glucose tolerance test (hypoglycemic effect) in streptozotocin diabetic model rats; type: in vivo, SD/IGS rats; details: for STZ rats OGTT % inhibition ΔAUC0-1h (mg/dl) @ 1 mg/kg/po: STZ-induced diabetic rats versus vehicle control, oral dose 1 mg/kg, glucose 2 g/kg
Experimental: (§1) Test Example 3 Confirmation study of hypoglycemic effect in streptozotocin diabetic model rats
(§2) (1) Preparation of Diabetic Model Rats
(§3) SD/IGS rats at 7 weeks of age (male, Charles River Laboratories Japan Inc.) were fasted for about 16 hours and then injected with 50 mg/kg streptozotocin (STZ) via the caudal vein under ether anesthesia to prepare diabetic model rats. Similarly, another group of SD/IGS rats at 7 weeks of age was injected with 1.25 mmol/L citric acid in physiological saline (1 mL/kg) via the caudal vein under ether anesthesia to prepare normal control rats. At one week after injection of STZ or 1.25 mmol/L citric acid in physiological saline, the rats (8 weeks old) were provided for an oral glucose tolerance test.
(§4) (2) Oral Glucose Tolerance Test
(§5) […] At 5 minutes after drug administration, a glucose solution (2 g/kg) was orally administered to each rat, and the blood was collected at a total of 5 time points: before drug administration (0 time), and at 0.25, 0.5, 1 and 2 hours after the oral administration.
(§6) Blood was collected from the caudal veins of the rats under ether anesthesia with the use of a heparin-coated blood collecting tube and centrifuged, whereafter blood plasma was separated. Plasma glucose concentrations were quantified by measurement with a Glucose CII-Test Wako (Wako Pure Chemical Industries, Ltd., Japan). To determine the intensity of hypoglycemic effect, the blood glucose level before drug administration was subtracted from each blood glucose level measured until one hour after oral administration in each drug group, and the resulting values were analyzed by the trapezoidal method to calculate an increment in the area under the curve for glucose (ΔAUC), which was expressed as a decrease relative to ΔAUC of the control group.

[3] = as above; type: in vivo, SD/IGS rats; details: OGTT using Sprague-Dawley rats, not STZ rats; oral dose 1 mg/kg
Experimental: as §1, §2, §3, §4, §5, §6

[4] = Renal concentrations after repeated oral administration for 3 days; type: in vivo, SD/IGS rats
Experimental: (2) Renal Concentrations of the Compound (I) of the Present Invention After Repeated Oral Administration for 3 Days
SD/IGS rats at 7 weeks of age (male, non-fasting, Charles River Laboratories Japan Inc.) were orally administered once a day for 3 consecutive days with the compound (I) (3 mg/kg) prepared in a 0.5% aqueous solution of CMC. At 48 hours after the final drug administration, the rats were exsanguinated via the postcaval vein under isoflurane anesthesia, and their kidneys were excised after they were confirmed to be euthanized. After the tissue surface was washed with physiological saline, each tissue was measured for its weight and homogenized in 4 volumes of purified water under ice cooling. The drug concentration in each homogenate was determined in the same manner as shown in Test Example 2(1) by LC-MS/MS using compound 11 as an internal standard substance.

human SGLT2 = human SGLT2 (Homo sapiens (Human), UniProt P31639); test: Inhibition test of sodium-dependent glucose uptake in CHO-K1 cells stably expressing human SGLT2; type: cell-based; details: [14C]methyl α-D-glucopyranoside uptake, 37° C., 60 minutes, read-out: IC50 for hSGLT2
Experimental: (2) Creation of CHO-K1 Cells Stably Expressing Human SGLT2
(§7) A plasmid vector expressing human SGLT2 protein was transfected into CHO-K1 cells using Lipofectamine LTX (Invitrogen). The cells were cultured in the presence of 1000 μg/mL geneticin to select resistant strains, followed by screening in the system shown below using sugar uptake capacity as an indicator to obtain SGLT2-expressing cells.
(§8) (3) Inhibition Test of Sodium-Dependent Glucose Uptake in Stable Expression Cells
(§9) The stably expressing cells prepared above were used in the following test.
(§10) Pretreatment buffer (140 mM choline chloride, 2 mM KCl, 1 mM CaCl2, 1 mM MgCl2, 10 mM HEPES/5 mM Tris, pH 7.4) was added to the stably expressing cells, followed by incubation for 20 minutes. The pretreatment buffer was removed and replaced by uptake buffer containing a test compound (1 mM methyl α-D-glucopyranoside (containing [^14C]methyl α-D-glucopyranoside), 145 mM NaCl, 2 mM KCl, 1 mM CaCl2, 1 mM MgCl2, 10 mM HEPES/5 mM Tris, pH 7.4). Uptake reaction was performed at 37° C. for 30 minutes (SGLT1) or 60 minutes (SGLT2). […] A liquid scintillator (Perkin Elmer) was added and mixed well, followed by measurement of radioactivity using a β-ray analyzer. […]

human SGLT1 = human SGLT1 (Homo sapiens (Human), UniProt P13866); test: Inhibition test of sodium-dependent glucose uptake in CHO-K1 cells stably expressing human SGLT1; type: cell-based; details: [14C]methyl α-D-glucopyranoside uptake, 37° C., 30 minutes, read-out: IC50 for hSGLT1
Experimental: (1) Creation of CHO-K1 Cells Stably Expressing Human SGLT1
as §7, with “SGLT1” for “SGLT2”, “2000” for “LTX”, “500” for “1000”, “SGLT1-expressing” for “SGLT2-expressing”
as §8, §9, §10

human SGLT2, sequence (P31639 whole entry): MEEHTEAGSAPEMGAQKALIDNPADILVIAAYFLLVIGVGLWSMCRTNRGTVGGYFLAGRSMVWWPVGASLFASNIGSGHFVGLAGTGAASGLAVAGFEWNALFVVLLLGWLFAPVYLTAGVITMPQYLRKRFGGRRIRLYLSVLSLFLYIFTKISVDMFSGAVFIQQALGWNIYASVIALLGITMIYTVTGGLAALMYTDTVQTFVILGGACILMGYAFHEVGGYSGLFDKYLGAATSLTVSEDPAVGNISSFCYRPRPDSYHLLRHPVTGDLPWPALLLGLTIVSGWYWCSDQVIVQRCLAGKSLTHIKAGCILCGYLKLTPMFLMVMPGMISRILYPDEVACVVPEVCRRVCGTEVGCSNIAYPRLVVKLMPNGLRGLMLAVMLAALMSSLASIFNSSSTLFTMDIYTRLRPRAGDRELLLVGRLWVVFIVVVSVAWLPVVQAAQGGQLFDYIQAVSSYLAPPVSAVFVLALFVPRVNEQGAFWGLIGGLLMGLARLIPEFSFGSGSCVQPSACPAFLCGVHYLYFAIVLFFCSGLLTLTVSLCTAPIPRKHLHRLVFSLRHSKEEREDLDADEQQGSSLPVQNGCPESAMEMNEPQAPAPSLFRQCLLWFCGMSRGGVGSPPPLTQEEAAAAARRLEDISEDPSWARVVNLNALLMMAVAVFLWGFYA
human SGLT1, sequence (P13866 whole entry): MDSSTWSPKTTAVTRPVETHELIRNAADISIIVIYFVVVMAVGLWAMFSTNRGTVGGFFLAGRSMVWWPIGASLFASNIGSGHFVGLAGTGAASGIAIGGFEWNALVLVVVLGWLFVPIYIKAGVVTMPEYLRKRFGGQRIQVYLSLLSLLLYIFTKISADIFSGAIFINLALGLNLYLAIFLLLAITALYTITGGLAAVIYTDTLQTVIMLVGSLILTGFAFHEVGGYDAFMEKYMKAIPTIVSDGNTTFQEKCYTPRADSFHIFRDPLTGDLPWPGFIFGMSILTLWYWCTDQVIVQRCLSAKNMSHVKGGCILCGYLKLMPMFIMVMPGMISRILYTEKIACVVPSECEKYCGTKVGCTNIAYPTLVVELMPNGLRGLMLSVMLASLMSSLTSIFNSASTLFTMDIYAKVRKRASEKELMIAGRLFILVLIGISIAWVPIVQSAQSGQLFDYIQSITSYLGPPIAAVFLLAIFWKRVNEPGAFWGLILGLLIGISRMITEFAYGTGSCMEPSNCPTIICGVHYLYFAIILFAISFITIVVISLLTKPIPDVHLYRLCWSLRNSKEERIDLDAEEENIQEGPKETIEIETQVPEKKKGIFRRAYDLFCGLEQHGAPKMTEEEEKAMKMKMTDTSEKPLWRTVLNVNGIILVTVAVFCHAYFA

Concentration of compounds in kidney after single oral administration, After 1 day ([1]; 1 mg/kg po, 1 day (24 hours)) [ng/g]	Concentration of compounds in kidney after single oral administration, After 3 days ([1]; 1 mg/kg po, 3 days (72 hours)) [ng/g]	Concentration of compounds in kidney after single oral administration, After 7 days ([1]; 1 mg/kg po, 7 days (168 hours)) [ng/g]	Compound	STZ rats OGTT % inhibition ΔAUC0-1h (mg/dl) @ 1 mg/kg/po [2] [%]	further results
167 ± 36.3	124 ± 12.2	53.8 ± 7.6	Cc1cc(O)c([C@@H]2O[C@H](CO)[C@@H](O)[C@H](O)[C@H]2O)cc1Cc1ccc(CCNC(=O)NC(C)(C)CO)cc1 [compound 10]	69	
			Cc1cc(O)c([C@@H]2O[C@H](CO)[C@@H](O)[C@H](O)[C@H]2O)cc1Cc1ccc(CCNC(=O)NC(CO)(CO)CO)cc1 [compound 11]	68	Concentration of compounds in kidney after single oral administration, After 1 day ([1]; 0.3 mg/kg po (footnote *), 1 day, mean ± S.D.): 63.5 ± 20.1* ng/g; Concentration of compounds in kidney after single oral administration, After 3 days ([1]; 0.3 mg/kg po (footnote *), 3 days, mean ± S.D.): 67.3 ± 3.15* ng/g; Concentration of compounds in kidney after single oral administration, After 7 days ([1]; 0.3 mg/kg po (footnote *), 7 days, mean ± S.D.): 48.7 ± 18.3* ng/g
68.4 ± 7.49	85.5 ± 23.1	76.3 ± 15.5	Cc1cc(O)c([C@@H]2O[C@H](CO)[C@@H](O)[C@H](O)[C@H]2O)cc1Cc1ccc(CCCC(=O)NC(C)(C)C(N)=O)cc1 [compound 4]	51	
29.8 ± 6.79	25.5 ± 8.68	16.2 ± 3.11	Cc1cc(O)c([C@@H]2O[C@H](CO)[C@@H](O)[C@H](O)[C@H]2O)cc1Cc1ccc(CCNC(=O)NC2CCN(Cc3ccccc3)CC2)cc1 [compound 33]		OGTT % inhibition ΔAUC0-1h (mg/dl) @ 1 mg/kg/po [3]: 81^# %
			COc1cc(C(C)C)c(Cc2ccc(/C=C/C(C)(C)C(=O)NC(C)(C)C(N)=O)cc2C)cc1[C@@H]1O[C@H](CO)[C@@H](O)[C@H](O)[C@H]1O [Compound (I)]		remaining in the kidney (in words) ([4]; 3 mg/kg for 3 consecutive days, at subsequent day 2): did not remain in the kidney; Concentration of compounds in kidney after 3 days continuous oral administration, After 2 days ([4]; 3 mg/kg po once a day for 3 days, male Sprague-Dawley rats, 48 hours after final administration, limit of detection 5 ng/g): ND^# (ND (not determined) means limit of detection (5 ng/g).); IC50 (human SGLT2): 554 nM; IC50 (human SGLT1): 65 nM; hypoglycemic action (in words) ([2]; glucose tolerance test, compound of the invention): potent hypoglycemic action

From US9161945B2, “4-isopropyl-6-methoxyphenyl glucitol compound” (TAISHO PHARMACEUTICAL CO., LTD., priority 2010, dated 2015)
